Experimental data from BindingDB's records for PubMed 10411588 (The University of Calgary, 1999).
Where a SMILES comes first, the peptide text is derived from it.

Each compound was assayed against T1, Proteinase-activated receptor 2 (Rattus norvegicus, UniProt Q63645).
T1 sequence (Q63645 whole entry): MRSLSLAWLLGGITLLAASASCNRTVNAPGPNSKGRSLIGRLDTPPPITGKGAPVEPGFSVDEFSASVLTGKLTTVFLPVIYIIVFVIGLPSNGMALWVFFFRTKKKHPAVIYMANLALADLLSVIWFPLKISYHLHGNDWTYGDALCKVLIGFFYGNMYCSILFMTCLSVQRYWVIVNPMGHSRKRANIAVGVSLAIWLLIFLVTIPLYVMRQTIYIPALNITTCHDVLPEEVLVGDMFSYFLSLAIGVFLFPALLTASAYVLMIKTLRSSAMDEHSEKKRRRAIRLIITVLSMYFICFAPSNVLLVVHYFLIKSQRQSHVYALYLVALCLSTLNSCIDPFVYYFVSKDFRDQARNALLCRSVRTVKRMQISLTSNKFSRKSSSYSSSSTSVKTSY
With CC[C@H](C)[C@H](NC(=O)[C@H](CC(C)C)NC(=O)[C@@H](N)CO)C(=O)NCC(=O)N[C@@H](CCCNC(=N)N)C(=O)N[C@@H](CC(C)C)C(N)=O [CAS_171436-38-7] (H-SLIGRL-NH2) the Ki was 260 nM.
Work on CC(C)C[C@H](NC(=O)[C@H](CC(C)C)NC(=O)[C@H](Cc1ccccc1)NC(=O)[C@@H](N)CO)C(=O)N[C@@H](CCCN=C(N)N)C(N)=O [SFLLR-NH2] yielded a Ki of 2300 nM.
With CC(C)C[C@H](NC(=O)[C@H](CC(C)C)NC(=O)[C@H](Cc1ccccc1)NC(=O)[C@@H](N)CO)C(=O)N[C@@H](CCCN=C(N)N)C(=O)O [SFLLR-OH] the Ki was > 10000 nM.
CC[C@H](C)[C@H](NC(=O)[C@H](CC(C)C)NC(=O)C=Cc1ccccc1)C(=O)NCC(=O)N[C@@H](CCCNC(=N)N)C(=O)N[C@@H](CC(C)C)C(=O)N[C@@H](CCCN)C(N)=O [trans-cinnamoyl-LIGRLO-NH2] (HELM PEPTIDE1{[O=C(C=Cc1ccccc1)[*:2]].L.I.G.R.L.[Orn].[am]}$$$$V2.0) was tested, and the Ki was 260 nM.
